Inconclusive results are not listed.

This assay concerns HT29 HRAS cells, caspase 3/7 luminescence, apoptosis. Nature of the assay: apoptosis induction over several timepoints – cell-based, HT29 HRAS, caspase 3/7 luminescence, multiple timepoints, dry powder, mechanism study for HRAS target identification (AID 652070). The settings on record: measured here: second timepoint caspase 3/7.

For the compound `O=C(NCCOCCOCCOc1ccc(N(C(=O)CCl)C(C(=O)NCCc2ccccc2)c2cccs2)cc1Cl)c1ccc(COC2C#CCCCCC2)cc1` (stereo unspecified), the AC40 is greater than 35 µM.
